{"source": "patent US4421747A", "about": "“Inflammation-preventing pharmaceutical composition of oral administration” (A. Nattermann & Cie. GmbH, priority 1981, dated 1983)", "key": {"bleeding stomach ulcer": {"system": "bleeding stomach ulcer", "experiment": "Ulcer development (bleeding stomach ulcer provoked by oral application, mean ulcer factor)", "type": "in vivo, Wistar-rats", "details": "for ED50: Rattus norvegicus, read-out: oral ED50", "experimental": "The development of the ulcer was determined in accordance with\nL. Mariani, \"Eur. J. Toxicol.\nR. Menguy & L. Desbaillets, \"Proc. Soc. exp.\nTen male and ten female Wistar-rats (120 to 150 grams, in weight) which have not fed for 16 hours, were used for these tests. The bleeding stomach ulcer was provoked by oral application of the active substance. After 3.5 hours, the animals are killed and the stomach extracted, opened along the wide curvature and stretched onto a \"Styropor\" plate. The mean ulcer factor of the test and of the control group are determined. The variation is weighted in percentages as prevention of the ulcer formation."}, "rat paw oedema": {"system": "rat paw oedema", "experiment": "rat-paw-oedema test (carragenin)", "type": "in vivo", "details": "for ED50: 3 h, read-out: oral ED50; for Prevention of Oedema: Table VII, 12 animals; for Effectiveness applied to Rat Paw Oedema: Table VIII, Dosage 10.0 mg/kg KGW, 12 Animals, prevention of oedema in percentages", "experimental": "On one hind paw of each rat (weight 200 to 250 grams) an oedema was caused to develop by the \"subplantane\" application of carragenin (0.5% in a 0.9% NaCl solution) in the amount of 0.1 ml solution per paw.\nAfter the application of the test substance, its volume not to exceed 10 ml per kg of body weight, the volume of the paw is determined in an overflow (\"Ueberlauf\"). After three hours the final value is ascertained. The test is carried out for every dosage by using 10 test and 10 control animals of one sex and repeated with the identical number of animals of the other sex. For the purpose of evaluation, the prevention of the oedema is expressed in percentages relative to the control group."}, "[1]": {"details": "reference substances, rat-paw-oedema test, oral"}, "[2]": {"details": "Table V, oral, Dosage One cc per mg/kg of Body Weight (KGW), by proportion Indometacine:Phospholipon 100"}}, "note": "Read-outs that look alike come from different tables or passages of the source.", "data": [{"smiles": "CC(=O)Oc1ccccc1C(=O)O", "note": "[Acetyl-Salicylic Acid, acetyl-salicylic acid]", "values": [{"measurement": "Ulcer Index", "setting": "bleeding stomach ulcer; Table I, oral, 200 mg/kg KGW, mixture molar ratio Acetyl-Salicylic Acid:Phospholipon 100 = 2:1, 3.5 h, n=10", "result": "1.20 ± 0.20"}, {"measurement": "Incidence of Ulcers", "setting": "bleeding stomach ulcer; Table I, oral, 200 mg/kg KGW, without resp. with p^+ (Phospholipon 100, 2:1)", "result": 70, "unit": "%"}, {"measurement": "Ulcer Index", "setting": "bleeding stomach ulcer; Table I, oral, 400 mg/kg KGW, mixture molar ratio Acetyl-Salicylic Acid:Phospholipon 100 = 2:1, 3.5 h, n=10", "result": "1.10 ± 0.50"}, {"measurement": "Incidence of Ulcers", "setting": "bleeding stomach ulcer; Table I, oral, 400 mg/kg KGW, without resp. with p^+ (Phospholipon 100, 2:1)", "result": 50, "unit": "%"}, {"measurement": "Ulcer Index", "setting": "bleeding stomach ulcer; Table I, oral, 800 mg/kg KGW, mixture molar ratio Acetyl-Salicylic Acid:Phospholipon 100 = 2:1, 3.5 h, n=10", "result": "1.20 ± 0.20"}, {"measurement": "Incidence of Ulcers", "setting": "bleeding stomach ulcer; Table I, oral, 800 mg/kg KGW, without resp. with p^+ (Phospholipon 100, 2:1)", "result": 80, "unit": "%"}]}, {"smiles": "CC(=O)OCC(=O)[C@@]1(O)CC[C@H]2[C@@H]3CCC4=CC(=O)CC[C@]4(C)[C@H]3[C@@H](O)C[C@@]21C", "note": "[Hydrocortisoneacetate]", "values": [{"measurement": "ED50", "setting": "rat paw oedema; [1]", "result": 19, "unit": "mg/kg"}]}, {"smiles": "CC(C)Cc1ccc(C(C)C(=O)O)cc1", "note": "(stereo not shown) [Ibuprofen, 2-(4-isobutylphenyl)-propinic acid]", "values": [{"measurement": "Incidence of Ulcers", "setting": "bleeding stomach ulcer; Table VI, oral, 5 mg/kg KGW, one value printed for without and with p^+ (Phospholipon 100, 1:1)", "result": 20, "unit": "%"}, {"measurement": "Incidence of Ulcers", "setting": "bleeding stomach ulcer; Table VI, oral, 10 mg/kg KGW, without resp. with p^+ (Phospholipon 100, 1:1)", "result": 20, "unit": "%"}, {"measurement": "Incidence of Ulcers", "setting": "bleeding stomach ulcer; Table VI, oral, 20 mg/kg KGW, without resp. with p^+ (Phospholipon 100, 1:1)", "result": 40, "unit": "%"}, {"measurement": "Incidence of Ulcers", "setting": "bleeding stomach ulcer; Table VI, oral, 30 mg/kg KGW, without resp. with p^+ (Phospholipon 100, 1:1)", "result": 50, "unit": "%"}, {"measurement": "Ulcer Index", "setting": "bleeding stomach ulcer; Table VI, rat, oral, 5 mg/kg KGW, mixture molar ratio Ibuprofen:Phospholipon 100 = 1:1, 3.5 h, n=10", "result": "0.20 ± 0.13"}, {"measurement": "Ulcer Index", "setting": "bleeding stomach ulcer; Table VI, rat, oral, 10 mg/kg KGW, mixture molar ratio Ibuprofen:Phospholipon 100 = 1:1, 3.5 h, n=10", "result": "0.30 ± 0.15"}, {"measurement": "Ulcer Index", "setting": "bleeding stomach ulcer; Table VI, rat, oral, 20 mg/kg KGW, mixture molar ratio Ibuprofen:Phospholipon 100 = 1:1, 3.5 h, n=10", "result": "0.50 ± 0.22"}, {"measurement": "Ulcer Index", "setting": "bleeding stomach ulcer; Table VI, rat, oral, 30 mg/kg KGW, mixture molar ratio Ibuprofen:Phospholipon 100 = 1:1, 3.5 h, n=10", "result": "0.71 ± 0.30"}]}, {"smiles": "COc1ccc2c(c1)c(CC(=O)O)c(C)n2C(=O)c1ccc(Cl)cc1", "note": "[Indometacine]", "values": [{"measurement": "Ulcer Index", "setting": "bleeding stomach ulcer; Table III, oral, 5 mg/kg KGW, mixture molar ratio Indometacine:Phospholipon 100 = 2:1, 3.5 h, n=10", "result": "1.20 ± 0.30"}, {"measurement": "Incidence of Ulcers", "setting": "bleeding stomach ulcer; Table III, oral, 5 mg/kg KGW, without resp. with p^+ (Phospholipon 100, 2:1)", "result": 70, "unit": "%"}, {"measurement": "Ulcer Index", "setting": "bleeding stomach ulcer; Table III, oral, 10 mg/kg KGW, mixture molar ratio Indometacine:Phospholipon 100 = 2:1, 3.5 h, n=10", "result": "1.90 ± 0.90"}, {"measurement": "Incidence of Ulcers", "setting": "bleeding stomach ulcer; Table III, oral, 10 mg/kg KGW, without resp. with p^+ (Phospholipon 100, 2:1)", "result": 90, "unit": "%"}, {"measurement": "Ulcer Index", "setting": "bleeding stomach ulcer; Table III, oral, 20 mg/kg KGW, mixture molar ratio Indometacine:Phospholipon 100 = 2:1, 3.5 h, n=10", "result": "1.50 ± 0.40"}, {"measurement": "Incidence of Ulcers", "setting": "bleeding stomach ulcer; Table III, oral, 20 mg/kg KGW, without resp. with p^+ (Phospholipon 100, 2:1)", "result": 100, "unit": "%"}, {"measurement": "Incidence of Ulcers", "setting": "bleeding stomach ulcer; Table IV, oral, 5 mg/kg KGW, without resp. with p^+ (Phospholipon 45, 1:2)", "result": 80, "unit": "%"}, {"measurement": "Incidence of Ulcers", "setting": "bleeding stomach ulcer; Table IV, oral, 10 mg/kg KGW, one value printed for without and with p^+ (Phospholipon 45, 1:2)", "result": 90, "unit": "%"}, {"measurement": "Incidence of Ulcers", "setting": "bleeding stomach ulcer; Table IV, oral, 20 mg/kg KGW, one value printed for without and with p^+ (Phospholipon 45, 1:2)", "result": 100, "unit": "%"}, {"measurement": "Incidence of Ulcers", "setting": "bleeding stomach ulcer; Table IV, oral, 30 mg/kg KGW, without resp. with p^+ (Phospholipon 45, 1:2)", "result": 80, "unit": "%"}, {"measurement": "Ulcer Index", "setting": "bleeding stomach ulcer; Table IV, rat, oral, 5 mg/kg KGW, mixture molar ratio Indometacine:Phospholipon 45 = 1:2, 3.5 h, n=10", "result": "2.10 ± 0.36"}, {"measurement": "Ulcer Index", "setting": "bleeding stomach ulcer; Table IV, rat, oral, 10 mg/kg KGW, mixture molar ratio Indometacine:Phospholipon 45 = 1:2, 3.5 h, n=10", "result": "2.20 ± 0.42"}, {"measurement": "Ulcer Index", "setting": "bleeding stomach ulcer; Table IV, rat, oral, 20 mg/kg KGW, mixture molar ratio Indometacine:Phospholipon 45 = 1:2, 3.5 h, n=10", "result": "2.30 ± 0.47"}, {"measurement": "Ulcer Index", "setting": "bleeding stomach ulcer; Table IV, rat, oral, 30 mg/kg KGW, mixture molar ratio Indometacine:Phospholipon 45 = 1:2, 3.5 h, n=10", "result": "2.70 ± 0.30"}, {"measurement": "Ulcer Index", "setting": "bleeding stomach ulcer; [2]", "result": "2.60 ± 0.22"}, {"measurement": "Variation of Mean Ulcer Factor: Indometacine With p^+ Versus Without p^+", "setting": "bleeding stomach ulcer; [2]", "result": 0, "unit": "%"}, {"measurement": "ED50", "setting": "rat paw oedema; Rattus norvegicus, po", "result": 7.24, "unit": "mg/kg"}, {"measurement": "Prevention of Oedema", "setting": "rat paw oedema; Indometacine 3.16 mg/kg p.o., mixture with Phospholipon 100 7.1 mg/kg p.o.", "result": -47.3, "unit": "%"}, {"measurement": "Prevention of Oedema", "setting": "rat paw oedema; Indometacine 10 mg/kg p.o., mixture with Phospholipon 100 22.4 mg/kg p.o.", "result": -37.8, "unit": "%"}, {"measurement": "Effectiveness applied to Rat Paw Oedema", "setting": "rat paw oedema; 3 hours elapsed after application", "result": 32}, {"measurement": "Effectiveness applied to Rat Paw Oedema", "setting": "rat paw oedema; 4 hours elapsed after application", "result": 40}, {"measurement": "Effectiveness applied to Rat Paw Oedema", "setting": "rat paw oedema; 5 hours elapsed after application", "result": 28}, {"measurement": "Effectiveness applied to Rat Paw Oedema", "setting": "rat paw oedema; 6 hours elapsed after application", "result": 27}]}, {"smiles": "CCCCC1C(=O)N(c2ccccc2)N(c2ccccc2)C1=O", "note": "[Phenylbutazone, 4-butyl-1,2-diphenylpyrazolidine-3,5-dion]", "values": [{"measurement": "Ulcer Index", "setting": "bleeding stomach ulcer; Table II, oral, 25 mg/kg KGW, mixture molar ratio Phenylbutazone:Phospholipon 100 = 2:1, 3.5 h, n=10", "result": "0.70 ± 0.05"}, {"measurement": "Incidence of Ulcers", "setting": "bleeding stomach ulcer; Table II, oral, 25 mg/kg KGW, without resp. with p^+ (Phospholipon 100, 2:1)", "result": 70, "unit": "%"}, {"measurement": "Ulcer Index", "setting": "bleeding stomach ulcer; Table II, oral, 50 mg/kg KGW, mixture molar ratio Phenylbutazone:Phospholipon 100 = 2:1, 3.5 h, n=10", "result": "1.60 ± 0.42"}, {"measurement": "Incidence of Ulcers", "setting": "bleeding stomach ulcer; Table II, oral, 50 mg/kg KGW, without resp. with p^+ (Phospholipon 100, 2:1)", "result": 60, "unit": "%"}, {"measurement": "Ulcer Index", "setting": "bleeding stomach ulcer; Table II, oral, 100 mg/kg KGW, mixture molar ratio Phenylbutazone:Phospholipon 100 = 2:1, 3.5 h, n=10", "result": "1.80 ± 0.84"}, {"measurement": "Incidence of Ulcers", "setting": "bleeding stomach ulcer; Table II, oral, 100 mg/kg KGW, without resp. with p^+ (Phospholipon 100, 2:1)", "result": 100, "unit": "%"}, {"measurement": "Ulcer Index", "setting": "bleeding stomach ulcer; Table II, oral, 200 mg/kg KGW, mixture molar ratio Phenylbutazone:Phospholipon 100 = 2:1, 3.5 h, n=10", "result": "1.90 ± 0.66"}, {"measurement": "Incidence of Ulcers", "setting": "bleeding stomach ulcer; Table II, oral, 200 mg/kg KGW, one value printed for without and with p^+ (Phospholipon 100, 2:1)", "result": 80, "unit": "%"}, {"measurement": "ED50", "setting": "rat paw oedema; [1]", "result": 100, "unit": "mg/kg"}]}, {"smiles": "CN1C2CCC1CC(OC(=O)C(CO)c1ccccc1)C2", "note": "(stereo not shown) [atropinesulphate]", "values": [{"measurement": "ED50", "setting": "bleeding stomach ulcer; po", "result": 17.1, "unit": "mg/kg"}]}, {"smiles": "CN(C)CCCN1c2ccccc2Sc2ccc(Cl)cc21", "note": "[chloropromazine]", "values": [{"measurement": "ED50", "setting": "bleeding stomach ulcer; reference substances, ulcer test, oral", "result": 105, "unit": "mg/kg"}]}]}
